The assay concerns m-IMCD3 cells. The experiment in a line: Inhibition of PGE2-stimulated in vitro cyst formation in 3D culture of m-IMCD3 cells. The assay is classed as cell-based, mouse. To be noted: Mus musculus, mIMCD3, 144 h; 10 μM test compound; mean cyst area (%) compared to 100% for (DMSO + PGE2) and 0% for DMSO control; 100 nM PGE2; 6 days; read-out: % Cyst area after incubation with 10 μM test compound. On the procedure: HEK 293 and MDCK cells (Public Health England, Cell Culture Collections) were maintained in Dulbecco's Modified Eagle's Medium (DMEM) supplemented with 10% (v/v) fetal bovine serum (FBS) (Seralab), 2 mM L-glutamine and 100 U/ml penicillin streptomycin cocktail (ThermoFisher); termed complete media. Clonal HEK 293 cell lines were maintained in complete media supplemented with 0.6 mg/mL G418 (Enzo Life Sciences). Mouse inner medullary collecting duct (m-IMCD3) cells [American Type Culture Collection (ATCC)] were maintained in media consisting of DMEM/Hams F-12 50/50 Mix (DMEM F12; Corning) supplemented with penicillin streptomycin cocktail (100 U/ml) and FBS (10% v/v) (DMEM F12-10% FBS).
The mouse Inner Medullary Collecting Duct cell line (m-IMCD3) spontaneously forms cystic spheroids in 3D culture with a Type 1 collagen/Matrigel extracellular matrix. This process can be stimulated with agents which raise intracellular cAMP, such as PGE2, and is used as an in vitro model for the formation of cystic structures in the kidneys of patients with ADPKD.
Rat Collagen I (Fisher Scientific) is prepared on ice by neutralising with 1M NaOH and diluting with a 2×volume of DMEM/F12+10% FBS for coating plate (coating mix) and a 2.2 volume of DMEM/F12+10% FBS for cell plating (plating mix). This is mixed 1:1.1 with ice cold Matrigel (Corning) for coating plates (coating mix), and 1:0.95 with Matrigel for cell plating (plating mix).
The assay is conducted in the wells of a 96-well plate culture dish using a total volume of 130 μl of collagen/Matrigel/DMEM F12-10% FBS suspension in growth media for each matrix plug per individual well. Initially, 30 μl of collagen/Matrigel/DMEM F12-10% FBS (coating mix) is added into the well of a 96 well plate and the collagen is set to a gel by incubating at 37° C. for at least 15 minutes. A second layer of 100 μl collagen/Matrigel suspension (plating mix) containing m-IMCD3 cells (2.75×10^6 m-IMCD3 cells per 96-well plate) is layered over the coating mix and the collagen/Matrigel/cell mix again set to a gel by incubating at 37° C. Cell cultures are maintained at 37° C. in an atmosphere of 5% CO2, 95% air.
Between 18 and 24h after plating, test compound(s) as DMSO stock solutions [0.1% (v/v) final DMSO concentration] and PGE2 (100 nM final concentration) in DMEM F12-10% FBS are added in quadruplicate wells per condition. Media, togetherwith the test compound and PGE2 are replenished after 2 or 3 days. After 6 days of culture z stack images of the wells are captured using the Nikon Eclipse Ti2-E microscope. Nikon General Analysis software is used to measure the following parameters in each well: the mean cyst area, the number of cysts, and the total cyst area.
PDE4 long form activators inhibited in vitro cyst formation in m-IMCD3 cells. Data are shown in FIG. 2 and Table 5 as mean cyst area (%), compared to 100% for (DMSO+PGE2) and 0% for DMSO control.
For `O=C(N[C@H]1CCOc2ccccc21)c1ccc2nc([C@H]3CCCNC3)sc2c1` (single isomer, unassigned) [Example 176], the activity at 10 µM was found to be 1%.

`Cc1ncccc1-c1nc2ccc(C(=O)NCc3ccc(F)cc3)cc2s1` [Example 2, N-(4-fluorobenzyl)-2-(2-methylpyridin-3-yl)benzo[d]thiazole-6-carboxamide]: the activity at 10 µM was -9%.

In the case of `COc1ccc(CNC(=O)c2ccc3nc(-c4cccnc4C)sc3c2)cc1` [Example 3, N-(4-methoxybenzyl)-2-(2-methylpyridin-3-yl)benzo[d]thiazole-6-carboxamide], the activity at 10 µM stood at 23%.

On to `Cc1ncccc1-c1nc2ccc(C(=O)NCc3cccc(F)c3)cc2s1` [Example 4, N-(3-fluorobenzyl)-2-(2-methylpyridin-3-yl)benzo[d]thiazole-6-carboxamide], for which the activity at 10 µM came out at 6%.

For the molecule `Cc1ncccc1-c1nc2ccc(C(=O)N[C@H]3CCc4ccccc43)cc2s1` [Example 5, (S)-N-(2,3-dihydro-1H-inden-1-yl)-2-(2-methylpyridin-3-yl)benzo[d]thiazole-6-carboxamide], the activity at 10 µM came to 1%.

Consider `CC(C)c1ccc(-c2nc3ccc(C(=O)N[C@H]4CCOc5ccccc54)cc3s2)cn1` [Example 28, (S)-N-(chroman-4-yl)-2-(6-isopropylpyridin-3-yl)benzo[d]thiazole-6-carboxamide], for which the activity at 10 µM was 26%.

For `CCc1ccc(-c2nc3ccc(C(=O)N[C@H]4CCOc5ccccc54)cc3s2)cn1` [Example 29, (S)-N-(chroman-4-yl)-2-(6-ethylpyridin-3-yl)benzo[d]thiazole-6-carboxamide], the activity at 10 µM is 22%.

For `Cc1cncc(-c2nc3ccc(C(=O)NCc4ccccc4)cc3s2)c1` [Example 30, N-benzyl-2-(5-methylpyridin-3-yl)benzo[d]thiazole-6-carboxamide], the activity at 10 µM is 21%.

With `Cc1cncc(-c2nc3ccc(C(=O)NCc4cccc(Cl)c4)cc3s2)c1` [Example 34, N-[(3-chlorophenyl)methyl]-2-(5-methylpyridin-3-yl)benzo[d]thiazole-6-carboxamide], the activity at 10 µM was 26%.

As for `COc1cccc(CNC(=O)c2ccc3nc(-c4cncc(C)c4)sc3c2)c1` [Example 36, N-(3-methoxybenzyl)-2-(5-methylpyridin-3-yl)benzo[d]thiazole-6-carboxamide], the activity at 10 µM came to 30%.

In the case of `Cc1ccnc(C)c1-c1nc2ccc(C(=O)N[C@H]3CCOc4ccccc43)cc2s1` [Example 52, (S)-N-(chroman-4-yl)-2-(2,4-dimethylpyridin-3-yl)benzo[d]thiazole-6-carboxamide], the activity at 10 µM is 24%.

As to `O=C(N[C@H]1CCOc2ccccc21)c1ccc2nc(N3CCOCC3)sc2c1` [Example 69, (S)-N-(chroman-4-yl)-2-morpholinobenzo[d]thiazole-6-carboxamide], the activity at 10 µM was determined as 20%.

Take `COC1CCN(c2nc3ccc(C(=O)N[C@H]4CCOc5ccccc54)cc3s2)CC1` [Example 70, (S)-N-(chroman-4-yl)-2-(4-methoxypiperidin-1-yl)benzo[d]thiazole-6-carboxamide]: the activity at 10 µM is -18%.

Turning to `CN1CCN(c2nc3ccc(C(=O)N[C@H]4CCOc5ccccc54)cc3s2)CC1` [Example 71, (S)-N-(chroman-4-yl)-2-(4-methylpiperazin-1-yl)benzo[d]thiazole-6-carboxamide], the activity at 10 µM was -1%.

Turning to `CCN1CCN(c2nc3ccc(C(=O)N[C@@H]4CCOc5ccccc54)cc3s2)CC1` [Example 73, (R)-N-(chroman-4-yl)-2-(4-ethylpiperazin-1-yl)benzo[d]thiazole-6-carboxamide], the activity at 10 µM worked out at 26%.

For `CC(C)N1CCN(c2nc3ccc(C(=O)N[C@H]4CCOc5ccccc54)cc3s2)CC1` [Example 74, (S)-N-(chroman-4-yl)-2-(4-isopropylpiperazin-1-yl)benzo[d]thiazole-6-carboxamide], the activity at 10 µM came to 8%.

In the case of `CC(C)(C)N1CCN(c2nc3ccc(C(=O)N[C@H]4CCOc5ccccc54)cc3s2)CC1` [Example 75, (S)-2-(4-(tert-butyl)piperazin-1-yl)-N-(chroman-4-yl)benzo[d]thiazole-6-carboxamide], the activity at 10 µM was -1%.

With `O=C(N[C@H]1CCOc2ccccc21)c1ccc2nc(N3C[C@H]4C[C@@H]3CN4)sc2c1` [Example 78, 2-((1R,4R)-2,5-diazabicyclo[2.2.1]heptan-2-yl)-N-((S)-chroman-4-yl)benzo[d]thiazole-6-carboxamide], the activity at 10 µM is 24%.

For `CCN1CCN(c2nc3ccc(C(=O)NCc4ccc(F)cc4)cc3s2)CC1` [Example 80, 2-(4-ethylpiperazin-1-yl)-N-(4-fluorobenzyl)benzo[d]thiazole-6-carboxamide], the activity at 10 µM stood at 26%.

In the case of `CCN1CCN(c2nc3ccc(C(=O)NC4CCCC4)cc3s2)CC1` [Example 81, N-cyclopentyl-2-(4-ethylpiperazin-1-yl)benzo[d]thiazole-6-carboxamide], the activity at 10 µM is 7%.

As to `CCN1CCN(c2nc3ccc(C(=O)NC(C)C)cc3s2)CC1` [Example 82, 2-(4-ethylpiperazin-1-yl)-N-isopropylbenzo[d]thiazole-6-carboxamide], the activity at 10 µM stood at 6%.

`O=C(N[C@H]1CCOc2c(F)cccc21)c1ccc2nc(N3CCNCC3)sc2c1` [Example 85, (S)-N-(8-fluorochroman-4-yl)-2-(piperazin-1-yl)benzo[d]thiazole-6-carboxamide]: the activity at 10 µM is -12%.

For the molecule `O=C(N[C@@H]1CCOc2cc(F)ccc21)c1ccc2nc(N3CCNCC3)sc2c1` [Example 88, (R)-N-(7-fluorochroman-4-yl)-2-(piperazin-1-yl)benzo[d]thiazole-6-carboxamide], the activity at 10 µM was determined as 22%.

As for `COc1ccc2c(c1)OCC[C@H]2NC(=O)c1ccc2nc(N3CCNCC3)sc2c1` [Example 93, (R)-N-(7-methoxychroman-4-yl)-2-(piperazin-1-yl)benzo[d]thiazole-6-carboxamide], the activity at 10 µM was 9%.

In the case of `O=C(N[C@H]1CCc2ccccc21)c1ccc2nc(N3CCNCC3)sc2c1` [Example 96, (S)-N-(2,3-dihydro-1H-inden-1-yl)-2-(piperazin-1-yl)benzo[d]thiazole-6-carboxamide], the activity at 10 µM stood at 2%.

Take `O=C(N[C@H]1CCc2cccc(F)c21)c1ccc2nc(N3CCNCC3)sc2c1` [Example 98, (S)-N-(7-fluoro-2,3-dihydro-1H-inden-1-yl)-2-(piperazin-1-yl)benzo[d]thiazole-6-carboxamide]: the activity at 10 µM worked out at 27%.

Take `O=C(N[C@@H]1CCc2c(F)cccc21)c1ccc2nc(N3CCNCC3)sc2c1` [Example 104, (R)-N-(4-fluoro-2,3-dihydro-1H-inden-1-yl)-2-(piperazin-1-yl)benzo[d]thiazole-6-carboxamide]: the activity at 10 µM worked out at 30%.

On to `COc1ccc2c(c1)[C@H](NC(=O)c1ccc3nc(N4CCNCC4)sc3c1)CC2` [Example 107, (R)-N-(6-methoxy-2,3-dihydro-1H-inden-1-yl)-2-(piperazin-1-yl)benzo[d]thiazole-6-carboxamide], for which the activity at 10 µM was 17%.

Consider `COc1ccc2c(c1)CC[C@@H]2NC(=O)c1ccc2nc(N3CCNCC3)sc2c1` [Example 108, (S)-N-(5-methoxy-2,3-dihydro-1H-inden-1-yl)-2-(piperazin-1-yl)benzo[d]thiazole-6-carboxamide], for which the activity at 10 µM amounted to 22%.

`O=C(N[C@H]1CCOc2ccccc21)c1ccc2nc(N3CCN(CCO)CC3)sc2c1` [Example 120, (S)-N-(chroman-4-yl)-2-(4-(2-hydroxyethyl)piperazin-1-yl)benzo[d]thiazole-6-carboxamide]: the activity at 10 µM was -5%.

For `O=C(N[C@H]1CCOc2ccccc21)c1ccc2nc(N3CC4CCC(C3)N4)sc2c1` [Example 121, 2-(3,8-diazabicyclo[3.2.1]octan-3-yl)-N-((S)-chroman-4-yl)benzo[d]thiazole-6-carboxamide], the activity at 10 µM was found to be 15%.

Values taken from patent publication US20240150339A1, “Compounds and Their Use as PDE4 Activators” (Mironid Limited, priority 2021, published 2024).
